Where “and” joins values, the source holds several entries; their conditions need not be identical. Equal values may be shown once.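 Five compound concentrations were applied to cells in 96-well plates for 48 hours; endpoints were derived by simple linear interpolation of the resulting dose-response curve. Abbreviation: GI50, concentration required for 50% inhibition of growth. At the TGI there is no net growth.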
Key:
Assay in all cases: growth of human tumour cells (NCI), 48 h
SK-MEL-5 melanoma = tested on: SK-MEL-5 melanoma
SF-268 CNS = tested on: SF-268 CNS
HOP-62 NSCLC = tested on: HOP-62 NSCLC
KM20L2 colon = tested on: KM20L2 colon
DMS 114 small cell lung = tested on: DMS 114 small cell lung
UACC-257 melanoma = tested on: UACC-257 melanoma
EKVX NSCLC = tested on: EKVX NSCLC
NCI-H460 lung = tested on: NCI-H460 lung
M14 melanoma = tested on: M14 melanoma
HOP-92 NSCLC = tested on: HOP-92 NSCLC
LOX IMVI melanoma = tested on: LOX IMVI melanoma
A549 NSCLC = tested on: A549 NSCLC
786-0 renal = tested on: 786-0 renal
OVCAR-8 ovarian = tested on: OVCAR-8 ovarian
COLO 205 colon = tested on: COLO 205 colon
HCT-15 colon = tested on: HCT-15 colon
KM12 colon = tested on: KM12 colon
UO-31 renal = tested on: UO-31 renal
SR leukemia = tested on: SR leukemia
SNB-19 CNS = tested on: SNB-19 CNS
NCI-H23 lung = tested on: NCI-H23 lung
XF 498 CNS = tested on: XF 498 CNS
OVCAR-4 ovarian = tested on: OVCAR-4 ovarian
SK-OV-3 ovarian = tested on: SK-OV-3 ovarian
SNB-75 CNS = tested on: SNB-75 CNS
CCRF-CEM leukemia = tested on: CCRF-CEM leukemia
MOLT-4 leukemia = tested on: MOLT-4 leukemia
DMS 273 small cell lung = tested on: DMS 273 small cell lung
CAKI-1 renal = tested on: CAKI-1 renal
K-562 leukemia = tested on: K-562 leukemia
UACC-62 melanoma = tested on: UACC-62 melanoma
OVCAR-5 ovarian = tested on: OVCAR-5 ovarian
NCI-H226 lung = tested on: NCI-H226 lung
SK-MEL-2 melanoma = tested on: SK-MEL-2 melanoma
OVCAR-3 ovarian = tested on: OVCAR-3 ovarian
HT29 colon = tested on: HT29 colon
SF-295 CNS = tested on: SF-295 CNS
NCI-H522 lung = tested on: NCI-H522 lung
A498 renal = tested on: A498 renal
SK-MEL-28 melanoma = tested on: SK-MEL-28 melanoma
DLD-1 colon = tested on: DLD-1 colon
HL-60(TB) leukemia = tested on: HL-60(TB) leukemia
SW-620 colon = tested on: SW-620 colon
HCC-2998 colon = tested on: HCC-2998 colon
HCT-116 colon = tested on: HCT-116 colon
TK-10 renal = tested on: TK-10 renal
SF-539 CNS = tested on: SF-539 CNS
RPMI-8226 leukemia = tested on: RPMI-8226 leukemia
M19-MEL melanoma = tested on: M19-MEL melanoma
ACHN renal = tested on: ACHN renal
HOP-18 NSCLC = tested on: HOP-18 NSCLC
SNB-78 CNS = tested on: SNB-78 CNS
SN12C renal = tested on: SN12C renal
MALME-3M melanoma = tested on: MALME-3M melanoma
IGROV1 ovarian = tested on: IGROV1 ovarian
U251 CNS = tested on: U251 CNS
LXFL 529 NSCLC = tested on: LXFL 529 NSCLC
RXF-631 renal = tested on: RXF-631 renal
RXF 393 renal = tested on: RXF 393 renal

## O=C1c2c(O)cccc2C(C(=O)CCCCCC(=O)C2c3cccc(O)c3C(=O)c3c(O)cccc32)c2cccc(O)c21
SK-MEL-5 melanoma
  GI50: 7.96 µM
SF-268 CNS
  GI50: 5.02 µM
  TGI: 4.52 µM and 11.9 µM
HOP-62 NSCLC
  GI50: 5.45 µM
  TGI: 6.96 µM and 16.9 µM
KM20L2 colon
  GI50: 15.4 µM
  TGI: 13.1 µM and 47.6 µM
DMS 114 small cell lung
  GI50: 3.16 µM
  TGI: 1.29 µM and 9.22 µM
UACC-257 melanoma
  GI50: 3.9 µM
  TGI: 2.73 µM and 10.6 µM
EKVX NSCLC
  GI50: 5.64 µM
  TGI: 3.68 µM and 19.5 µM
NCI-H460 lung
  GI50: 1.57 µM
  TGI: 1.62 µM and 5.23 µM
M14 melanoma
  GI50: 7.79 µM
  TGI: 2.5 µM and 16.8 µM
HOP-92 NSCLC
  TGI: 16.8 µM
LOX IMVI melanoma
  GI50: 1.95 µM
  TGI: 8.85 µM and 7.1 µM
A549 NSCLC
  GI50: 6.6 µM
  TGI: 3.68 µM and 14.5 µM
786-0 renal
  TGI: 21.6 µM
OVCAR-8 ovarian
  GI50: 6.8 µM
  TGI: 8.5 µM and 15.6 µM
COLO 205 colon
  GI50: 7.8 µM
  TGI: 25 µM and 15.5 µM
HCT-15 colon
  GI50: 7.25 µM
  TGI: 5.44 µM and 14.4 µM
KM12 colon
  GI50: 1.65 µM
  TGI: 3.71 µM and 5.6 µM
UO-31 renal
  GI50: 7.85 µM
  TGI: 3.88 µM and 14.5 µM
SR leukemia
  TGI: 4.33 µM
SNB-19 CNS
  GI50: 2.05 µM
  TGI: 3.9 µM and 6.97 µM
NCI-H23 lung
  GI50: 3.94 µM
  TGI: 1.88 µM and 12.9 µM
XF 498 CNS
  TGI: 1.2 µM
OVCAR-4 ovarian
  GI50: 5.17 µM
  TGI: 4.61 µM and 11 µM
SK-OV-3 ovarian
  GI50: 6.3 µM
  TGI: 4.15 µM and 13.8 µM
SNB-75 CNS
  GI50: 1.69 µM
  TGI: 6.15 µM and 7.22 µM
CCRF-CEM leukemia
  GI50: 2.05 µM
  TGI: 25 µM and 13.6 µM
MOLT-4 leukemia
  GI50: 10.8 µM
  TGI: 25 µM and 27.6 µM
DMS 273 small cell lung
  TGI: 13.3 µM
CAKI-1 renal
  GI50: 10.6 µM
  TGI: 10.2 µM and 19.9 µM
K-562 leukemia
  GI50: 2.86 µM
  TGI: 25 µM and 12.5 µM
UACC-62 melanoma
  GI50: 2.22 µM
  TGI: 5.26 µM and 9.46 µM
OVCAR-5 ovarian
  GI50: 6.96 µM
  TGI: 7.43 µM and 14.4 µM
NCI-H226 lung
  GI50: 4.97 µM
  TGI: 7.29 µM and 11.6 µM
SK-MEL-2 melanoma
  GI50: 1.83 µM
  TGI: 3.61 µM and 6.64 µM
OVCAR-3 ovarian
  GI50: 1.73 µM
  TGI: 3.19 µM and 5.98 µM
HT29 colon
  GI50: 11.8 µM
  TGI: 11.4 µM and 23.1 µM
SF-295 CNS
  GI50: 1.48 µM
  TGI: 25 µM and 3.74 µM
NCI-H522 lung
  GI50: 6.72 µM
A498 renal
  GI50: 21 µM
  TGI: 10.9 µM and 37.6 µM
SK-MEL-28 melanoma
  GI50: 7.4 µM
  TGI: 4.63 µM and 14.8 µM
DLD-1 colon
  GI50: 7.67 µM
  TGI: 8.88 µM and 16.7 µM
HL-60(TB) leukemia
  TGI: 5.35 µM and 4.77 µM
SW-620 colon
  GI50: 5.44 µM
  TGI: 25 µM and 14.5 µM
HCC-2998 colon
  GI50: 2.83 µM
  TGI: 25 µM and 12.7 µM
HCT-116 colon
  GI50: 7.61 µM
  TGI: 25 µM and 14.9 µM
TK-10 renal
  GI50: 8.83 µM
  TGI: 7.61 µM and 18.7 µM
SF-539 CNS
  GI50: 6.64 µM
RPMI-8226 leukemia
  GI50: 1.55 µM
  TGI: 2.1 µM and 4.41 µM
M19-MEL melanoma
  GI50: 2.4 µM
  TGI: 2.5 µM and 9.2 µM
ACHN renal
  GI50: 9.48 µM
  TGI: 5.71 µM and 16.6 µM
HOP-18 NSCLC
  GI50: 7.95 µM
  TGI: 4.28 µM and 14.9 µM
SNB-78 CNS
  GI50: 7.55 µM
SN12C renal
  GI50: 10.6 µM
  TGI: 9.71 µM and 30 µM
MALME-3M melanoma
  GI50: 8.38 µM
  TGI: 5.87 µM and 15.3 µM
IGROV1 ovarian
  GI50: 12.5 µM
  TGI: 6.13 µM and 28.6 µM
U251 CNS
  GI50: 2.5 µM
  TGI: 3.11 µM and 8.21 µM
LXFL 529 NSCLC
  GI50: 7.58 µM
  TGI: 2.78 µM and 14.2 µM
RXF-631 renal
  GI50: 2.99 µM
  TGI: 7.98 µM and 13.6 µM

## O=C(Nc1cccc(C(F)(F)F)c1)C(=O)C(C(=O)c1ccc(Cl)c(Cl)c1)C1OC(=O)c2ccccc21 (stereo not given)
SF-268 CNS
  TGI: > 100 µM
HOP-62 NSCLC
  TGI: > 100 µM
KM20L2 colon
  TGI: > 100 µM
DMS 114 small cell lung
  TGI: 78.6 µM
UACC-257 melanoma
  TGI: > 100 µM
EKVX NSCLC
  TGI: > 100 µM
NCI-H460 lung
  TGI: > 100 µM
M14 melanoma
  TGI: > 100 µM
HOP-92 NSCLC
  TGI: > 100 µM
LOX IMVI melanoma
  TGI: > 100 µM
A549 NSCLC
  TGI: > 100 µM
786-0 renal
  TGI: > 100 µM
OVCAR-8 ovarian
  TGI: > 100 µM
COLO 205 colon
  TGI: > 100 µM
HCT-15 colon
  TGI: > 100 µM
KM12 colon
  TGI: > 100 µM
UO-31 renal
  TGI: > 100 µM
SR leukemia
  TGI: > 100 µM
SNB-19 CNS
  TGI: > 100 µM
NCI-H23 lung
  TGI: > 100 µM
XF 498 CNS
  TGI: > 100 µM
OVCAR-4 ovarian
  TGI: > 100 µM
SK-OV-3 ovarian
  TGI: > 100 µM
SNB-75 CNS
  TGI: 92.3 µM
CCRF-CEM leukemia
  TGI: > 100 µM
MOLT-4 leukemia
  TGI: > 100 µM
DMS 273 small cell lung
  TGI: > 100 µM
CAKI-1 renal
  TGI: > 100 µM
K-562 leukemia
  TGI: > 100 µM
UACC-62 melanoma
  TGI: 88.3 µM
OVCAR-5 ovarian
  TGI: > 100 µM
NCI-H226 lung
  TGI: 62.5 µM
RXF 393 renal
  TGI: 41.7 µM
OVCAR-3 ovarian
  TGI: > 100 µM
HT29 colon
  TGI: > 100 µM
NCI-H522 lung
  TGI: > 100 µM
A498 renal
  TGI: 79.8 µM
DLD-1 colon
  TGI: > 100 µM
HL-60(TB) leukemia
  TGI: > 100 µM
SW-620 colon
  TGI: > 100 µM
HCC-2998 colon
  TGI: > 100 µM
HCT-116 colon
  TGI: 34.7 µM
TK-10 renal
  TGI: > 100 µM
RPMI-8226 leukemia
  TGI: > 100 µM
M19-MEL melanoma
  TGI: 54 µM
ACHN renal
  TGI: > 100 µM
HOP-18 NSCLC
  TGI: > 100 µM
SNB-78 CNS
  TGI: > 100 µM
SN12C renal
  TGI: > 100 µM
MALME-3M melanoma
  TGI: 76.9 µM
IGROV1 ovarian
  TGI: > 100 µM
U251 CNS
  TGI: > 100 µM
LXFL 529 NSCLC
  TGI: > 100 µM
RXF-631 renal
  TGI: > 100 µM
